Target: T1, GABAB receptor (Homo sapiens, UniProt O75899+Q9UBS5)
T1 construct: expressed in transfected cells
Experiment: [35S]-GTPγS binding assay, potency of PAM on the GABA dose-response
Assay type: biochemical
Settings: for IC50: membranes from CHO cell lines expressing GABAB receptor, GABA in presence or absence of PAM; for EC50: potency of PAM in GTPγS assays
Text: GABABR1a and GABABR2 were cloned from human brain cDNA and subcloned into pCI-Neo (Promega) and pALTER-1(Promega), respectively. A GABABR1a-Gαqi5 fusion protein expression vector was constructed using the pCI-Neo-GABABR1a cDNA plasmid and pLEC1-Gαqi5 (Molecular Devices, Calif.). In order to make the Gαqi5 pertussis toxin insensitive, Cys356 was mutated to Gly using standard PCR methodology with the primers 5′-[…]-3′ (forward) and 5′-GCGGCCG […]-3′ (reverse). The Gαqi5mut cDNA was ligated into the BamHI and NotI sites of pcDNA3.0 (Invitrogen). The GABAB R1a coding sequence was amplified by PCR from pCI-Neo-GABABR1a using the primers, 5′-[…]-3′ (forward) and 5′-[…]-3′ (reverse) and subcloned into the BamHI site of pcDNA3.0-Gαqis5mut.
For generation of a cell line expressing the GABABR1a/GABABR2 heterodimer, GABABR1a plasmid DNA (4 μg) GABABR2 plasmid DNA (4 μg) and lipofectamine (24 μl) were mixed in 5 ml OptiMEM and incubated for 45 minutes at room temperature. The cells were exposed to the transfection medium for 5 hours, which then was replaced with culture medium. The cells were cultured for an additional 10 days before selection agents (300 μg/ml hygromycin and 400 μg/ml geneticin) were added. Twenty-four days after transfection, single cell sorting into 96-well plates by flow cytometry was performed using a FACS Vantage SE (Becton Dickinson, Palo Alto, Calif.), After expansion, the GABAB receptor functional response was tested using the FLIPR assay described below. The clone with the highest functional response was collected, expanded and then subcloned by single cell sorting. The clonal cell line with the highest peak response in the FLIPR was used in the present study.
For generation of a stable cell line expressing GABABR1a-Gαqi5 fusion protein and GABABR2, GABABR1a-Gαqi5mut plasmid DNA (8 μg) GABABR2 plasmid DNA (8 μg) and lipofectamine (24 μl) were mixed in 5 ml OptiMEM and incubated for 45 minutes at room temperature. The cells were exposed to the transfection medium for 5 hours, which then was replaced with culture medium. After forty-eight hours, the cells were detached and seeded in 6 well plates (2000 cells well) and grown in culture medium supplemented with geneticin (400 μg/ml) and zeocin (250 μg/ml). After 4 days, cells from single colonies were collected and transferred to a 24-well plate. After 10 days, the cell clones were seeded in T-25 flasks and grown for another 16 days before they were tested for GABAB receptor mediated functional response. […] The clonal cell line that gave the highest peak response in the FLIPR was used in the present study.
[^35S]-GTPγS binding assays were performed at 30° C. for 45 min in membrane buffer (100 mM NaCl, […], 1 mM EDTA, 50 mM HEPES, pH 7.4) containing 0.025 μg/μl of membrane protein (prepared from the cell lines described above) with 0.01% bovine serum albumin (fatty acid free): 10 μM GDP, 100 μM DTT and 0.53 nM [^35S]-GTPγS (Amersham-Pharmacia Biotech) in a final volume of 200 μl. Non-specific binding was determined in the presence of 20 μM GTPγS. The reaction was started by the addition of GABA at concentration between 1 mM and 0.1 nM in the presence or absence of the required concentration of PAM. The reaction was terminated by addition of ice-cold wash buffer (50 mM Tris-HCl, 5 mM MgCl2, 50 mM NaCl, pH 7.4) followed by rapid filtration under vacuum through Printed Filtermat A glass fiber filters (Wallac) (0.05% PEI treated) using a Micro 96 Harvester (Skatron Instruments). The filters were dried for 30 min at 50° C., then a paraffin scintillant pad was melted onto the filters and the bound radioactivity was determined using a 1450 Microbeta Trilux (Wallac) scintillation counter.
GABA dose-response curves in the presence and absence of test compounds were constructed using the 4-parameter logistic equation, y=ymax+((ymin−ymax)/1+(x/C)^D), where C=EC50 and D=slope factor.

T1 sequence (Q9UBS5 15-961 limits assumed): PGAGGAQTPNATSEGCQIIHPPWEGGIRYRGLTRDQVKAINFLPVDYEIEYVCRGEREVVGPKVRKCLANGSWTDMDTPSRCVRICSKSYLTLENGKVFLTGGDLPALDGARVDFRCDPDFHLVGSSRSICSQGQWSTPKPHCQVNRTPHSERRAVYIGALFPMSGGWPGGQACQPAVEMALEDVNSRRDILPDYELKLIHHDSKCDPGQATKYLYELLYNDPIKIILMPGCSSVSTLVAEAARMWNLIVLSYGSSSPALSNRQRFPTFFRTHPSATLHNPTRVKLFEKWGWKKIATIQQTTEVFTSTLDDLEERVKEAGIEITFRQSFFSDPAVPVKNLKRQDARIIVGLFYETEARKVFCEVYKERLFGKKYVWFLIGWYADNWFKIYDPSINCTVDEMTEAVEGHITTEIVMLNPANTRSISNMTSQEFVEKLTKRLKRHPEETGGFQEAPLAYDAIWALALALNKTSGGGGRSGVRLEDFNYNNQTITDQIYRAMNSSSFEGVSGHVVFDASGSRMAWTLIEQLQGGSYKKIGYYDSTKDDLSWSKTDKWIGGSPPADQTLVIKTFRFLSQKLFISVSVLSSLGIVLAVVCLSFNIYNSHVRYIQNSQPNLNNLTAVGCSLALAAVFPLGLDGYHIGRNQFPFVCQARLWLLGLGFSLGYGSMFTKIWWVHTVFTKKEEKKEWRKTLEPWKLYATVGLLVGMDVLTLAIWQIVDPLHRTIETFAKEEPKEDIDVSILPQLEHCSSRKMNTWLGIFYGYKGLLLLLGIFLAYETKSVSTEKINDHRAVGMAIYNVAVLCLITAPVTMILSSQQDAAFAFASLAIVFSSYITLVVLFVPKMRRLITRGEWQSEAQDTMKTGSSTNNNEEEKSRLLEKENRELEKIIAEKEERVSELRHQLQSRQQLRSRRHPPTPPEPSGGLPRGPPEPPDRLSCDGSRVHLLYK
T1 sequence (O75899 42-941): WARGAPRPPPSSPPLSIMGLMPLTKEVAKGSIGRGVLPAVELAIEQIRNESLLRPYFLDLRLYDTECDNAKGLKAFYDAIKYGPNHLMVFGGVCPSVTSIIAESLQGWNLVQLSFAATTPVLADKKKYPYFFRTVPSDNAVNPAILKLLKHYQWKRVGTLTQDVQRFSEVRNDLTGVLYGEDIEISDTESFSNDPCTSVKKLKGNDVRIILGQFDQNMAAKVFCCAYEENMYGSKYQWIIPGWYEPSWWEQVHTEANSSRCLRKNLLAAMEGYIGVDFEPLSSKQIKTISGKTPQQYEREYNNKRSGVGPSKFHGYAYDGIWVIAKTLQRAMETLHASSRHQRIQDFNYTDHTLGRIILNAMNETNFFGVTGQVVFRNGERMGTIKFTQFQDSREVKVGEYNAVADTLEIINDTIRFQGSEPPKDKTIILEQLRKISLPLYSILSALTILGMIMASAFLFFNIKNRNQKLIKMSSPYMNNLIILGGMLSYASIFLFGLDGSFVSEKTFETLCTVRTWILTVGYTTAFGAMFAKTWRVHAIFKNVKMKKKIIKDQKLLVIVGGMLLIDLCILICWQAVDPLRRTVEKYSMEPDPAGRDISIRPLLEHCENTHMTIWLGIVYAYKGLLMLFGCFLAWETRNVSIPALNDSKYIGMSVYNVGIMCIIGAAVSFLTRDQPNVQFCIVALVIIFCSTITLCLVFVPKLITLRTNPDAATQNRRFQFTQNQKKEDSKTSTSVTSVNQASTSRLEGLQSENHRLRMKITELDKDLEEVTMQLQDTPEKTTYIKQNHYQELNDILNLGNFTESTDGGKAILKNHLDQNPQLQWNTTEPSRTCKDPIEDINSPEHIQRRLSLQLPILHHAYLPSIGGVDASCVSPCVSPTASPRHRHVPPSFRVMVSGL

| IC50 | EC50 | Compound |
| --- | --- | --- |
| 4 µM | – | COc1nc(NC(=O)c2scc(S(=O)(=O)C(C)C)c2Cl)c(C(=O)OC(C)(C)C)n1-c1ccc(F)cc1 [Example 1, Tert-butyl 4-({[3-chloro-4-(isopropylsulfonyl)-2-thienyl]carbonyl}amino)-1-(4-fluorophenyl)-2-methoxy-1H-imidazole-5-carboxylate] |
| 0.81 µM | – | COc1nc(NC(=O)c2c(F)cc(F)cc2F)c(C(=O)OC(C)(C)C)n1-c1ccc(F)cc1 [Example 8, Tert-butyl 1-(4-fluorophenyl)-2-methoxy-4-[(2,4,6-trifluorobenzoyl)amino]-1H-imidazole-5-carboxylate] |
| 1.4 µM | – | COc1nc(NC(=O)C2(c3ccc(Cl)cc3)CCCC2)c(C(=O)OC(C)(C)C)n1-c1ccc(F)cc1 [Example 4, Tert-butyl 4-({[1-(4-chlorophenyl)cyclopentyl]carbonyl}amino)-1-(4-fluorophenyl)-2-methoxy-1H-imidazole-5-carboxylate] |
| 1.6 µM | – | COc1nc(NC(=O)c2ccc(Oc3ccccc3)nc2)c(C(=O)OC(C)(C)C)n1-c1ccc(F)cc1 [Example 7, Tert-butyl 1-(4-fluorophenyl)-2-methoxy-4-{[(6-phenoxypyridin-3-yl)carbonyl]amino}-1H-imidazole-5-carboxylate] |
| 3.7 µM | – | CCc1nc(NC(=O)c2ccc(Cl)cc2Cl)c(C(=O)OC(C)(C)C)n1-c1ccc(F)cc1 [Example 20, Tert-butyl 4-[(2,4-dichlorobenzoyl)amino]-2-ethyl-1-(4-fluorophenyl)-1H-imidazole-5-carboxylate] |
| 6.2 µM | – | COc1nc(NC(=O)C(OC)(c2ccccc2)C(F)(F)F)c(C(=O)OC(C)(C)C)n1-c1ccc(F)cc1 (stereo not shown) [Example 5, Tert-butyl 1-(4-fluorophenyl)-2-methoxy4-[(3,3,3-trifluoro-2-methoxy-2-phenylpropanoyl)amino]-1H-imidazole-5-carboxylate] |
| 1.4 µM | – | COCC(C)(C)OC(=O)c1c(NC(=O)C2COc3ccccc3O2)nc(OC)n1-c1ccc2c(c1)OCO2 (stereo not shown) [Example 15, 2-methoxy-1,1-dimethylethyl 1-(1,3-benzodioxol-5-yl)-4-[(2,3-dihydro-1,4-benzodioxin-2-ylcarbonyl)amino]-2-methoxy-1H-imidazole-5-carboxylate] |
| 1.5 µM | – | COc1nc(NC(=O)C2COc3ccccc3O2)c(C(=O)OC(C)(C)C)n1-c1ccc(F)cc1 (stereo not shown) [Example 3, Tert-butyl 4-[(2,3-dihydro-1,4-benzodioxin-2-ylcarbonyl)amino]-1-(4-fluorophenyl)-2-methoxy-1H-imidazole-5-carboxylate] |
| 1.3 µM | – | COCC(C)(C)OC(=O)c1c(NC(=O)c2ccc(Cl)cc2Cl)nc(OC)n1-c1cccc(OC)c1 [Example 18, 2-methoxy-1,1-dimethylethyl 4-[(2,4-dichlorobenzoyl)amino]-2-methoxy-1-(3-methoxyphenyl)-1H-imidazole-5-carboxylate] |
| 0.96 µM | 0.96 µM | COc1nc(NC(=O)c2ccc(Cl)cc2Cl)c(C(=O)OC(C)(C)COc2ccccc2)n1-c1ccc(F)cc1 [Example 12, 1,1-dimethyl-2-phenoxyethyl 4-[(2,4-dichlorobenzoyl)amino]-1-(4-fluorophenyl)-2-methoxy-1H-imidazole-5-carboxylate] |
| 3.1 µM | – | COc1nc(NC(=O)c2ccc(Cl)cc2)c(C(=O)OC(C)(C)C)n1-c1ccc(F)cc1 [Example 2, Tert-butyl 4-[(4-chlorobenzoyl)amino]-1-(4-fluorophenyl)-2-methoxy-1H-imidazole-5-carboxylate] |
| 1.1 µM | – | COc1nc(NC(=O)c2ccc(Cl)cc2Cl)c(C(=O)OC(C)(C)COCC(F)(F)F)n1-c1ccc(F)cc1 [Example 11, 1,1-dimethyl-2-(2,2,2-trifluoroethoxy)ethyl 4-[(2,4-dichlorobenzoyl)amino]-1-(4-fluorophenyl)-2-methoxy-1H-imidazole-5-carboxylate] |
| 1.6 µM | – | COc1nc(NC(=O)c2cnn(-c3ccc(Cl)cc3)c2C(F)(F)F)c(C(=O)OC(C)(C)C)n1-c1ccc(F)cc1 [Example 6, Tert-butyl 4-({[1-(4-chlorophenyl)-5-(trifluoromethyl)-1H-pyrazol-4-yl]carbonyl}amino)-1-(4-fluorophenyl)-2-methoxy-1H-imidazole-5-carboxylate] |
| 1.5 µM | – | COCCOCC(C)(C)OC(=O)c1c(NC(=O)c2ccc(Cl)cc2Cl)nc(OC)n1-c1ccc(F)cc1 [Example 10, 2-(2-methoxyethoxy)-1,1-dimethylethyl 4-[(2,4-dichlorobenzoyl)amino]-1-(4-fluorophenyl)-2-methoxy-1H-imidazole-5-carboxylate] |
| 1.1 µM | – | CCc1nc(NC(=O)c2ccc(N=[N+]=[N-])cc2)c(C(=O)OC(C)(C)C)n1-c1ccc(F)cc1 [Example 19, Tert-butyl 4-[(4-azidobenzoyl)amino]-2-ethyl-1-(4-fluorophenyl)-1H-imidazole-5-carboxylate] |
| 2.1 µM | – | CCC1(C)CCC(C(C)(C)OC(=O)c2c(NC(=O)c3ccc(Cl)cc3Cl)nc(OC)n2-c2ccc(F)cc2)O1 (stereo not shown) [Example 14, 1-(5-ethyl-5-methyltetrahydrofuran-2-yl)-1-methylethyl 4-[(2,4-dichlorobenzoyl)amino]-1-(4-fluorophenyl)-2-methoxy-1H-imidazole-5-carboxylate] |
| 2 µM | – | CCOC(=O)C1(OC(=O)c2c(NC(=O)c3ccc(Cl)cc3Cl)nc(OC)n2-c2ccc(F)cc2)CC1 [Example 13, 1-(ethoxycarbonyl)cyclopropyl 4-[(2,4-dichlorobenzoyl)amino]-1-(4-fluorophenyl)-2-methoxy-1H-imidazole-5-carboxylate] |
| 3.4 µM | – | COCC(C)(C)OC(=O)c1c(NC(=O)COCc2ccccc2)nc(OC)n1-c1ccc2c(c1)OCO2 [Example 17, 2-methoxy-1,1-dimethylethyl 1-(1,3-benzodioxol-5-yl)-4-{[(benzyloxy)acetyl]amino}-2-methoxy-1H-imidazole-5-carboxylate] |
| 1.2 µM | – | COCC(C)(C)OC(=O)c1c(NC(=O)c2ccc(Cl)cc2)nc(OC)n1-c1ccc2c(c1)OCO2 [Example 16, 2-methoxy-1,1-dimethylethyl 1-(1,3-benzodioxol-5-yl)-4-[(4-chlorobenzoyl)amino]-2-methoxy-1H-imidazole-5-carboxylate] |
| 2.16 µM | 2.16 µM | COc1nc(NC(=O)c2ccc(Cl)cc2Cl)c(C(=O)OC(C)(C)C)n1-c1ccc(F)cc1 [Example 9, Tert-butyl 4-[(2,4-dichlorobenzoyl)amino]-1-(4-fluorophenyl)-2-methoxy-1H-imidazole-5-carboxylate] |
